In US11905286B2, “Diazabicyclooctanones as inhibitors of serine beta-lactamases” (priority 2018, dated 2024):
Counter-ions that a name gives are not always drawn. Like-named read-outs stand apart in the source and are kept apart here.

Columns and labels:
[1] = molecular target: T1, AmpC (Enterobacter cloacae, UniProt P05364); conditions: read-out: Amp-C mean IC50 (banded); nitrocefin 100 μM, band
[2] = tested on: NTBC091.1 (E. coli strain expressing KPC-2, TEM-1); experiment: Meropenem potentiation, broth micro-dilution MIC, strain NTBC091.1; type: cell-based; conditions: for MIC mero + 4 μg/mL inhibitor (banded): NTBC091.1, MIC of meropenem with 4 μg/mL of the labelled inhibitor, band; for MIC of meropenem + compound compared with meropenem + avibactam: NTBC091.1
Procedure: (§2) The experiments were carried out using the ‘broth micro-dilution method’ according to the protocols M07-A8 established by the Clinical Laboratory Standards Institute (CLSI). […] After incubation for 18-20 hours in a heating chamber at 37° C., the growth inhibition was evaluated by the absence of any bacterial development.
(§3) Compounds of the invention were tested at concentrations of 4 μg/mL.

[3] = tested on: NTBC093 (E. cloacae strain expressing KPC-2, TEM-1); experiment: Meropenem potentiation, broth micro-dilution MIC, strain NTBC093; conditions: for MIC: Enterobacter cloacae, read-out: MIC mero + 4 μg/mL inhibitor
Procedure: as §2, §3

[4] = tested on: NTBC189 (K. pneumoniae strain expressing TEM-OSBL(b), CTX-M-14, OXA-48(c)); experiment: Meropenem potentiation, broth micro-dilution MIC, strain NTBC189; conditions: for MIC: Klebsiella pneumoniae, read-out: MIC mero + 4 μg/mL inhibitor
Procedure: as §2, §3

[5] = tested on: NTBC096.1 (K. pneumoniae strain expressing OXA-181 and SHV-11); experiment: Meropenem potentiation, broth micro-dilution MIC, strain NTBC096.1; type: cell-based; conditions: for MIC: Klebsiella pneumoniae, read-out: MIC mero + 4 μg/mL inhibitor
Procedure: as §2, §3

[6] = molecular target: CTX-M15 (Escherichia coli, UniProt Q9EXV5); experiment: In vitro enzyme inhibition assay (nitrocefin hydrolysis), CTX-M15; type: biochemical
Sequence of CTX-M15 (Q9EXV5 entry or part of it): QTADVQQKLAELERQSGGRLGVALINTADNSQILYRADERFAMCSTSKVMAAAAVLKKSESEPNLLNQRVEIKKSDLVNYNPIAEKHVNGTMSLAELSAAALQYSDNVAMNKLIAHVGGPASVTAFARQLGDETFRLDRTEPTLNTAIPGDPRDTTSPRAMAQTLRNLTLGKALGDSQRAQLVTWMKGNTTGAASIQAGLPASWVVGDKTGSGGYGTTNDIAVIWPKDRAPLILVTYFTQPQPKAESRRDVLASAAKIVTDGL
Procedure: (§1) Compound dilution was performed in DMSO.

[7] = molecular target: OXA-48 (Klebsiella pneumoniae, UniProt Q6XEC0); experiment: In vitro enzyme inhibition assay (nitrocefin hydrolysis), OXA-48; type: biochemical
Sequence of OXA-48 (Q6XEC0 23-265 limits assumed): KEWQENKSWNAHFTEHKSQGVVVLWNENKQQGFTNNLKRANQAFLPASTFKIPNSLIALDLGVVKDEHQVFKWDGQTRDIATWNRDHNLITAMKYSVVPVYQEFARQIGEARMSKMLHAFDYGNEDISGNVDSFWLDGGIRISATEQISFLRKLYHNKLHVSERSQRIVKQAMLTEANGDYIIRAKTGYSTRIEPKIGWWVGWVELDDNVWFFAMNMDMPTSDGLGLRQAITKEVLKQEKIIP
Procedure: as §1

[8] = molecular target: KPC-2 (Klebsiella pneumoniae, UniProt Q9F663); experiment: In vitro enzyme inhibition assay (nitrocefin hydrolysis), KPC-2; type: biochemical
Sequence of KPC-2 (Q9F663 25-293 limits assumed): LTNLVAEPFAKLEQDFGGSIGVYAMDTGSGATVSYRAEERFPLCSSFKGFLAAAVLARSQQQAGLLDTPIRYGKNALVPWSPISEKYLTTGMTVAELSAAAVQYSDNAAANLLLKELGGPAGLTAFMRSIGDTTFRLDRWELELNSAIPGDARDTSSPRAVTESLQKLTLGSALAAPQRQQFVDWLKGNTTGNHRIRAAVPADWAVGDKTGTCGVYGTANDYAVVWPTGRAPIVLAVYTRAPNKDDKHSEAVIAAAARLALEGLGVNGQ
Procedure: as §1

[9] = tested on: NTBC099 (K. pneumoniae strain expressing KPC-3, SHV-11 and TEM-1); experiment: Meropenem potentiation, broth micro-dilution MIC, strain NTBC099; conditions: Klebsiella pneumoniae, read-out: MIC mero + 4 μg/mL inhibitor
Procedure: as §2, §3

[10] = molecular target: T1, AmpC; experiment: biochemical

T1 sequence (P05364 21-381): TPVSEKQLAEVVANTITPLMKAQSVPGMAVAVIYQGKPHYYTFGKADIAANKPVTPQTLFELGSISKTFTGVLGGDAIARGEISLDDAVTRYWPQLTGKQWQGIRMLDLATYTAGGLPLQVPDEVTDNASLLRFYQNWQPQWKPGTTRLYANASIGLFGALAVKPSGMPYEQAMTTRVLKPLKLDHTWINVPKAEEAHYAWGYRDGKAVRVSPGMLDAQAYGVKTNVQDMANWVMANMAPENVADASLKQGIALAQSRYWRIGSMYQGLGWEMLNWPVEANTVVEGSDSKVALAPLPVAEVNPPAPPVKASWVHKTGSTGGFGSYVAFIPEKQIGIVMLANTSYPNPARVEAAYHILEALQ

Structure (SMILES) | IC50 [1] [nM] | MIC mero + 4 μg/mL inhibitor (banded) [2] | MIC mero + 4 μg/mL inhibitor (banded) ([3]; NTBC093, MIC of meropenem with 4 μg/mL of the labelled inhibitor, band) | MIC mero + 4 μg/mL inhibitor ([3]; NTBC093, MIC of meropenem with 4 μg/mL of the labelled inhibitor, value) [µg/mL] | MIC mero + 4 μg/mL inhibitor (banded) ([4]; NTBC189, MIC of meropenem with 4 μg/mL of the labelled inhibitor, band) | MIC mero + 4 μg/mL inhibitor (banded) ([5]; NTBC096.1, MIC of meropenem with 4 μg/mL of the labelled inhibitor, band) | IC50 ([6]; nitrocefin 50 μM, band, read-out: CTX-M15 mean IC50 (banded)) [nM] | MIC of meropenem + compound compared with meropenem + avibactam [2] | MIC [3] [µg/mL] | IC50 [7] [nM] | MIC [4] [µg/mL] | MIC [5] [µg/mL] | IC50 [6] [nM] | IC50 [8] [nM] | MIC [9] [µg/mL] | IC50 [10] [nM]
NC(=O)[C@@H]1CC[C@@H]2CN1C(=O)N2OS(=O)(=O)O [Avibactam, avibactam, reference compound] | < 10 | A (1 μg/mL) | A (1 μg/mL) | 0.03 | A (1 μg/mL) | B (MIC=1 or 2 μg/mL) | < 5 |  |  |  |  |  |  |  |  | 
O=C1N2C[C@@H](CC[C@H]2C(F)(F)F)N1OS(=O)(=O)O [Example 1, Sodium (2S, 5R)-7-oxo-2-(trifluoromethyl)-1,6-diazabicyclo[3.2.1]octan-6-yl sulfate] |  | (A) (1 μg/mL) |  |  |  |  |  | lower | 0.06 | < 20 | 2 | 4 | 5 to 20 | < 10 |  | 
O=C1N2C[C@@H](CC[C@H]2C(F)F)N1OS(=O)(=O)O [Example 2, Sodium (2S, 5R)-7-oxo-2-(difluoromethyl)-1,6-diazabicyclo[3.2.1]octan-6-yl sulfate] |  | (A) (1 μg/mL) |  |  |  |  |  | lower | 0.06 | 20 to 100 | 2 | 4 | 5 to 20 | < 10 | 1 | 
O=C1N2C[C@@H](CC[C@H]2C(Cl)Cl)N1OS(=O)(=O)O [Example 3, Sodium (2S,5R)-2-(dichloromethyl)-7-oxo-1,6-diazabicyclo[3.2.1]octan-6-yl sulfate] |  | (A) (1 μg/mL) |  |  |  |  |  |  |  | 100 to 200 |  |  | 20 to 100 | < 10 |  | 40 to 60
O=C1N2C[C@@H](CC[C@H]2CF)N1OS(=O)(=O)[O-].[Na+] [Example 4, Sodium (2S, 5R)-2-(fluoromethyl)-7-oxo-1,6-diazabicyclo[3.2.1]octan-6-yl sulphate] |  | (A) (1 μg/mL) |  |  |  |  |  |  |  | 200 to 300 |  |  | 5 to 20 | > 10 |  | < 10
CC(F)(F)[C@@H]1CC[C@@H]2CN1C(=O)N2OS(=O)(=O)[O-].[Na+] [Example 5, Sodium (2S, 5R)-2-(1,1-difluoroethyl)-7-oxo-1,6-diazabicyclo[3.2.1]octan-6-yl sulphate] |  | (A) (1 μg/mL) |  |  |  |  |  |  |  | 20 to 100 |  |  | 5 to 20 | > 10 |  | 40 to 60
O=C1N2C[C@@H](CC[C@H]2CCl)N1OS(=O)(=O)[O-].[Na+] [Example 6, Sodium (2S, 5R)-2-(chloromethyl)-7-oxo-1,6-diazabicyclo[3.2.1]octan-6-yl sulphate] |  | (A) (1 μg/mL) |  |  |  |  |  |  |  | 200 to 300 |  |  |  | > 10 |  | 10 to 40
